≈ marks a conversion by molar mass, not a printed value.
Tested on: Mycobacterium tuberculosis
Test: Antimycobacterial activity against Mycobacterium tuberculosis H37Rv by agar dilution method
Type: functional

Structure (SMILES) | MIC [µg/mL]
O=C1Nc2ccc([N+](=O)[O-])cc2[C@]12N1CSC[C@H]1[C@H](c1cccc(Cl)c1Cl)[C@]21Cc2ccccc2C1=O | 2.8 (≈ 5.07 µM)
Cc1ccc([C@H]2[C@@H]3CSCN3[C@@]3(C(=O)Nc4ccccc43)[C@@]23Cc2ccccc2C3=O)cc1 | > 55.2
O=C1Nc2ccccc2[C@]12N1CSC[C@H]1[C@H](c1ccc(Cl)cc1)[C@]21Cc2ccccc2C1=O | 52.9 (≈ 112 µM)
COc1ccc([C@H]2[C@@H]3CSCN3[C@@]3(C(=O)Nc4ccccc43)[C@@]23Cc2ccccc2C3=O)cc1 | > 53.4
O=C1Nc2ccccc2[C@]12N1CSC[C@H]1[C@H](c1ccc(F)cc1)[C@]21Cc2ccccc2C1=O | 13.7 (≈ 30 µM)
O=C1Nc2ccccc2[C@]12N1CSC[C@H]1[C@H](c1ccc(Br)cc1)[C@]21Cc2ccccc2C1=O | 24.2 (≈ 46.8 µM)
O=C1Nc2ccccc2[C@]12N1CSC[C@H]1[C@H](c1ccc([N+](=O)[O-])cc1)[C@]21Cc2ccccc2C1=O | 12.9 (≈ 26.7 µM)
O=C1Nc2ccccc2[C@]12N1CSC[C@H]1[C@H](c1ccccc1Cl)[C@]21Cc2ccccc2C1=O | 26.4 (≈ 55.8 µM)
Cc1ccccc1[C@H]1[C@@H]2CSCN2[C@@]2(C(=O)Nc3ccccc32)[C@@]12Cc1ccccc1C2=O | > 55.2
O=C1Nc2ccccc2[C@]12N1CSC[C@H]1[C@H](c1cccc(Cl)c1Cl)[C@]21Cc2ccccc2C1=O | 12.3 (≈ 24.2 µM)
O=C1Nc2ccccc2[C@]12N1CSC[C@H]1[C@H](c1cccs1)[C@]21Cc2ccccc2C1=O | 56.2 (≈ 126 µM)
O=C1Nc2ccc(Cl)cc2[C@]12N1CSC[C@H]1[C@H](c1ccc(Cl)cc1)[C@]21Cc2ccccc2C1=O | 24.6 (≈ 48.5 µM)
Cc1ccc([C@H]2[C@@H]3CSCN3[C@@]3(C(=O)Nc4ccc(Cl)cc43)[C@@]23Cc2ccccc2C3=O)cc1 | 51.3 (≈ 105 µM)
COc1ccc([C@H]2[C@@H]3CSCN3[C@@]3(C(=O)Nc4ccc(Cl)cc43)[C@@]23Cc2ccccc2C3=O)cc1 | > 49.7
O=C1Nc2ccc(Cl)cc2[C@]12N1CSC[C@H]1[C@H](c1ccc(F)cc1)[C@]21Cc2ccccc2C1=O | 12.7 (≈ 25.9 µM)
O=C1Nc2ccc(Cl)cc2[C@]12N1CSC[C@H]1[C@H](c1ccc(Br)cc1)[C@]21Cc2ccccc2C1=O | 11.3 (≈ 20.5 µM)

Structure (SMILES) | MIC [µg/mL]
O=C1Nc2ccc(Cl)cc2[C@]12N1CSC[C@H]1[C@H](c1ccc([N+](=O)[O-])cc1)[C@]21Cc2ccccc2C1=O | 12.1 (≈ 23.4 µM)
O=C1Nc2ccc(Cl)cc2[C@]12N1CSC[C@H]1[C@H](c1ccccc1Cl)[C@]21Cc2ccccc2C1=O | 12.3 (≈ 24.2 µM)
Cc1ccccc1[C@H]1[C@@H]2CSCN2[C@@]2(C(=O)Nc3ccc(Cl)cc32)[C@@]12Cc1ccccc1C2=O | 25.7 (≈ 52.8 µM)
Cc1ccc([C@H]2[C@@H]3CSCN3[C@@]3(C(=O)Nc4ccc([N+](=O)[O-])cc43)[C@@]23Cc2ccccc2C3=O)cc1 | 25.1 (≈ 50.4 µM)
O=C1Nc2ccc(Cl)cc2[C@]12N1CSC[C@H]1[C@H](c1cccc(Cl)c1Cl)[C@]21Cc2ccccc2C1=O | 5.8 (≈ 10.7 µM)
O=C1Nc2ccc(Cl)cc2[C@]12N1CSC[C@H]1[C@H](c1cccs1)[C@]21Cc2ccccc2C1=O | 52.2 (≈ 109 µM)
O=C1Nc2ccc([N+](=O)[O-])cc2[C@]12N1CSC[C@H]1[C@H](c1ccc(Cl)cc1)[C@]21Cc2ccccc2C1=O | 24.1 (≈ 46.5 µM)
COc1ccc([C@H]2[C@@H]3CSCN3[C@@]3(C(=O)Nc4ccc([N+](=O)[O-])cc43)[C@@]23Cc2ccccc2C3=O)cc1 | 24.3 (≈ 47.3 µM)
O=C1Nc2ccc([N+](=O)[O-])cc2[C@]12N1CSC[C@H]1[C@H](c1ccc(F)cc1)[C@]21Cc2ccccc2C1=O | 3.1 (≈ 6.18 µM)
O=C1Nc2ccc([N+](=O)[O-])cc2[C@]12N1CSC[C@H]1[C@H](c1ccc(Br)cc1)[C@]21Cc2ccccc2C1=O | 11.1 (≈ 19.7 µM)
O=C1Nc2ccc([N+](=O)[O-])cc2[C@]12N1CSC[C@H]1[C@H](c1ccc([N+](=O)[O-])cc1)[C@]21Cc2ccccc2C1=O | 5.9 (≈ 11.2 µM)
O=C1Nc2ccc([N+](=O)[O-])cc2[C@]12N1CSC[C@H]1[C@H](c1ccccc1Cl)[C@]21Cc2ccccc2C1=O | 12.1 (≈ 23.4 µM)
Cc1ccccc1[C@H]1[C@@H]2CSCN2[C@@]2(C(=O)Nc3ccc([N+](=O)[O-])cc32)[C@@]12Cc1ccccc1C2=O | 25.1 (≈ 50.4 µM)
CC[C@@H](CO)NCCN[C@@H](CC)CO [ETHAMBUTOL] | 7.6 (≈ 37.2 µM)
NNC(=O)c1ccncc1 [ISONIAZID] | 0.4 (≈ 2.92 µM)
CO[C@H]1/C=C/O[C@@]2(C)Oc3c(C)c(O)c4c(O)c(c(/C=N/N5CCN(C)CC5)c(O)c4c3C2=O)NC(=O)/C(C)=C\C=C\[C@H](C)[C@H](O)[C@@H](C)[C@@H](O)[C@@H](C)[C@H](OC(C)=O)[C@@H]1C [RIFAMPIN] | 0.1 (≈ 0.122 µM)

Source: ChEMBL document CHEMBL1629481, “A regio- and stereoselective 1,3-dipolar cycloaddition for the synthesis of novel spiro-pyrrolothiazolyloxindoles and their antitubercular evaluation” (2010)
